Assay results taken from patent publication US20240062782A1, “NONLINEAR LIGHT ABSORPTION MATERIAL, RECORDING MEDIUM, METHOD FOR RECORDING INFORMATION, AND METHOD FOR READING INFORMATION” (Panasonic Intellectual Property Management Co., Ltd., priority 2021, published 2024).
Where two headings read alike, the source gives them in different places.

Tests used:
Type in all cases: physicochemical
[1] = Measurement of two-photon absorption cross-section by the Z-scan method, light of 405 nm; conditions: light of wavelength 405 nm; for Two-photon absorption cross-section σ: titanium sapphire pulsed laser second harmonic, 80 fs, 1 kHz
Source text: The two-photon absorption cross-section of the compound A for light having a wavelength of 405 nm may be higher than 1 GM or 10 GM or more. The upper limit of the two-photon absorption cross-section of the compound A is not particularly limited and is, for example, 1000 GM. The two-photon absorption cross-section can be measured by, for example, the Z-scan method described in J. Opt. Soc. Am. B, 2003, Vol. 20, p. 529. The Z-scan method is broadly used as a method for measuring a nonlinear optical constant. In the Z-scan method, a measurement sample is moved along the irradiation direction of a laser beam near the focal point where the beam is focused. On this occasion, the change in the amount of light permeated through the measurement sample is recorded. In the Z-scan method, the power density of incident light changes depending on the position of the measurement sample. Accordingly, when the measurement sample performs nonlinear light absorption, if the measurement sample is located near the focal point of the laser beam, the amount of the transmitted light is attenuated. The two-photon absorption cross-section can be calculated by fitting the change of the amount of transmitted light to a theoretical curve predicted by the intensity of incident light, the thickness of the measurement sample, the concentration of the compound A in the measurement sample, and so on.
The compounds of Examples and Comparative Examples were measured for the two-photon absorption cross-section for light having a wavelength of 405 nm. The measurement of the two-photon absorption cross-section was performed using the Z-scan method described in J. Opt. Soc. Am. B, 2003, Vol. 20, p. 529. As the light source for measuring the two-photon absorption cross-section, a titanium sapphire pulsed laser was used. Specifically, each sample was irradiated with the second harmonic of the titanium sapphire pulsed laser. The pulse width of the laser was 80 fs. The repetition frequency of the laser was 1 kHz. The average power of the laser was changed within a range of 0.01 mW or more and 0.08 mW or less. The light from the laser was light having a wavelength of 405 nm. […] As described above, the two-photon absorption cross-sections of the compounds of Examples 1 and 2 and the compounds of Comparative Examples 1 and 4 to 6 were measured.

Solubility in chloroform = conditions: chloroform as solvent
Source text: Unsubstituted truxene is a hydrocarbon compound that is nonpolar and has a high planarity. Unsubstituted truxene corresponds to the compound of the above formula (1) in which R^1 to R^6 are hydrogen atoms. In the present specification, the unsubstituted truxene may be simply called truxene. In truxene, […] stacking of the molecules is likely to occur, and the solubility in a solvent or resin monomer tends to be low. For example, when chloroform is used as the solvent, the solubility of truxene is about several mmol/L. When the concentration of truxene in a material is high, truxene molecules come close to each other and are assembled in various forms. Consequently, multiple new levels are formed at positions with energies lower than the lowest one-photon-allowed state of truxene itself. Accordingly, tailing of a peak derived from one-photon absorption can be verified by measuring the one-photon absorption spectrum of the material including truxene at a high concentration. In contrast, in the compound A represented by the formula (1) in which R^1 to R^6 are hydrocarbon groups, it tends to suppress the formation of assembly of compound molecules without substantially changing the size of the π C electron conjugated system of truxene. […]

[2] = Measurement of fluorescence internal quantum yield (absolute PL quantum yield measuring apparatus); conditions: for Fluorescence quantum yield Φf: in chloroform or tetrahydrofuran, excitation at one-photon absorption peak, measured 350-650 nm; for Fluorescence property: stated in words
Source text: The compound A also tends to emit fluorescent light. The wavelength of fluorescent light emitted by the compound A may be 405 nm or more and 660 nm or less and, in some cases, may be 300 nm or more and 650 nm or less. The quantum yield Φf of fluorescence in the compound A may be 0.05 or more, 0.1 or more, or 0.5 or more. The upper limit of the quantum yield Φf of fluorescence of the compound A is not particularly limited and is, for example, 0.99. In the present specification, the “quantum yield” specifically means internal quantum yield. The quantum yield of fluorescence can be measured by, for example, a commercially available absolute PL quantum yield measuring apparatus.
The compounds of Examples and Comparative Examples were measured for fluorescence internal quantum yield. The measurement sample was prepared by dissolving a compound in a chloroform (CLF) solvent or a tetrahydrofuran (THF) solvent. In the measurement, an absolute PL quantum yield measuring apparatus (C9920-02, manufactured by Hamamatsu Photonics K.K.) was used. The excitation wavelength was set to the peak wavelength of the one-photon absorption of the compound. The measurement wavelength was appropriately adjusted within a range of 350 nm or more and 650 nm or less so as not to overlap with the absorption wavelength band of the compound. As a reference, the solvent used for dissolving the compound was used. As described above, the fluorescence quantum yields of the compounds of Examples 1 and 2 and the compounds of Comparative Examples 1 and 4 to 6 were measured.

[3] = Measurement of molar absorption coefficient at 405 nm (JIS K0115:2004); conditions: wavelength 405 nm; compound concentration 100 to 500 mmol/L in solvent
Source text: The molar absorption coefficient of the compound A for light having a wavelength of 405 nm may be 100 mol^−1·L·cm^−1 or less, 10 mol^−1·L·cm^−1 or less, 1 mol^−1·L·cm^−1 or less, or 0.1 mol^−1·L·cm^−1 or less. The lower limit of the molar absorption coefficient of the compound A is not particularly limited and is, for example, 0.00001 mol^−1·L·cm^−1. The molar absorption coefficient can be measured by, for example, a method in accordance with the provision of Japanese Industrial Standards (JIS) K0115:2004. The measurement of molar absorption coefficient uses a light source that irradiates light with a photon density to hardly cause two-photon absorption by the compound A. Furthermore, in the measurement of molar absorption coefficient, the concentration of the compound A is adjusted to 100 mmol/L or more and 500 mmol/L or less. This concentration is very high compared to the concentration in a measurement test of the molar absorption coefficient of a light absorption peak. The molar absorption coefficient can be used as an index of one-photon absorption.
The compounds of Examples and Comparative Examples were measured for the molar absorption coefficient by a method in accordance with the provision of JIS K0115:2004. Specifically, first, as a measurement sample, a solution in which a compound was dissolved in a solvent was prepared. The concentration of the compound in the solution was appropriately adjusted within a range of 100 mmol/L or more and 500 mmol/L or less according to the absorbance at a wavelength of 405 nm of the compound as the target for measurement. Then, the absorption spectrum of the measurement sample was measured. The absorbance at a wavelength of 405 nm was read from the obtained spectrum. The molar absorption coefficient was calculated based on the concentration of the compound in the measurement sample and the optical path length of the cell used for the measurement. As described above, the molar absorption coefficients of the compounds of Examples 1 and 2 and the compounds of Comparative Examples 1 and 4 to 6 were measured.

[4] = Solubility in the solvent when preparing samples for optical characteristics; conditions: measurement solvent; sample could not be prepared
Procedure: (§1) The compounds of Examples and Comparative Examples were measured for optical characteristics by the following methods. […] Measurement of two-photon absorption cross-section

[5] = Stability for light having a wavelength in a short wavelength region; conditions: short wavelength region (390-420 nm); optical characteristics could not be measured
Procedure: as §1

Row | Fluorescence quantum yield Φf [2] | Molar absorption coefficient ε [3] [L/mol/cm] | Two-photon absorption cross-section σ [1] [GM] | also measured | Compound
1 | 0.1 | 24 |  | Ratio σ/ε ([1]; σ in GM over ε in mol^−1·L·cm^−1): 8; solubility (Solubility in chloroform): about several | c1ccc2c(c1)Cc1c-2c2c(c3c1-c1ccccc1C3)-c1ccccc1C2 [Comparative Example 1, 10,15-dihydro-5H-diindeno[1,2-a:1′,2′-c]fluorene]
2 |  |  |  | Solubility in the solvent (sample for measuring optical characteristics) [4]: low solubility | O=c1c2ccccc2c2c1c1c3ccccc3c(=O)c1c1c3ccccc3c(=O)c21 [Comparative Example 2, 5H-diindeno[1,2-a:1′,2′-c]fluorene-5,10,15-trione]
3 |  |  |  | Stability for light having a wavelength in a short wavelength region [5]: low stability | c1ccc2c(c1)[nH]c1c2c2[nH]c3ccccc3c2c2[nH]c3ccccc3c12 [Comparative Example 3, 10,15-dihydro-5H-5,10,15-triaza-diindeno[1,2-a:1′,2′-c]fluorene]
4 |  | 2730 | 23000 |  | C(#Cc1c(C#Cc2ccccc2)c(C#Cc2ccccc2)c(C#Cc2ccccc2)c(C#Cc2ccccc2)c1C#Cc1ccccc1)c1ccccc1 [Comparative Example 4, Hexakis(phenylethynyl)benzene]
5 | 0 | 35 | 570 |  | COc1cc(-c2ccc(-c3ccc(C(=O)c4ccc(OCCOCCOC(C)=O)c(OCCOCCOC(C)=O)c4)cc3)c(OC)c2)ccc1-c1ccc(C(=O)c2ccc(OCCOCCOC(C)=O)c(OCCOCCOC(C)=O)c2)cc1 [Comparative Example 5]
6 | 0.3 | 70 | 380 |  | OC(C#Cc1ccc(N(c2ccc(C#CC(O)(c3ccccc3)c3ccccc3)cc2)c2ccc(C#CC(O)(c3ccccc3)c3ccccc3)cc2)cc1)(c1ccccc1)c1ccccc1 [Comparative Example 6]
7 | 0.1 | 0.04 | 40 | solubility (Solubility in chloroform; organic solvent or mixture, read-out: Solubility): ≥ 100 mM; Fluorescence property [2]: had a fluorescence property | CC1(C)c2ccccc2-c2c1c1c(c3c2C(C)(C)c2ccccc2-3)C(C)(C)c2ccccc2-1 [Example 1, 10,15-dihydro-5,5,10,10,15,15-hexamethyl-5H-diindeno[1,2-a:1′,2′-c]fluorene]
8 | 0.1 | 0.08 | 43 | Fluorescence property [2]: had a fluorescence property | CCC1(CC)c2ccccc2-c2c1c1c(c3c2C(CC)(CC)c2ccccc2-3)C(CC)(CC)c2ccccc2-1 [Example 2, 10,15-dihydro-5,5,10,10,15,15-hexaethyl-5H-diindeno[1,2-a:1′,2′-c]fluorene]
